Entries after “also recorded” stand apart in the source; their conditions may differ.
How the values were obtained:
TLR2 = test: IL-8 production, calcium flux agonist plus TLR2 ligand (FIGS. 2A-2E); format: cell-based; conditions: suboptimal doses: 20 nM thapsigargin, 316 nM A23187, 1 μM ionomycin, 10 μM cyclopiazonic acid, 31.6 μM DBHQ
Protocol: (§1) To investigate if that observation was also true for other pattern recognition receptors, and especially for TLR and NOD receptors and other ligands, the inventors tested numerous TLR and NOD receptors and various ligands.
(§2) The doses used in this experiment were 20 nM for thapsigargin, 316 nM for A23187, 1 μM for ionomycin, 10 μM for cyclopiazonic acid, and 31.6 μM for DBHQ.
(§3) Thus, a clear pattern of adjuvant activity of calcium flux agonists on the immune response, and especially on IL-8 production and NF-κB signaling is evident where the immune response is associated with a TLR- or NOD-mediated event.

NOD2 = test: IL-8 production, calcium flux agonist plus NOD2 ligand (FIGS. 2A-2E); format: cell-based; conditions: suboptimal doses: 20 nM thapsigargin, 316 nM A23187, 1 μM ionomycin, 10 μM cyclopiazonic acid, 31.6 μM DBHQ
Protocol: as §1, §2, §3

TLR4 = test: IL-8 production, calcium flux agonist plus TLR4 ligand (FIGS. 2A-2E); format: cell-based; conditions: suboptimal doses: 20 nM thapsigargin, 316 nM A23187, 1 μM ionomycin, 10 μM cyclopiazonic acid, 31.6 μM DBHQ
Protocol: as §1, §2, §3

[1] = test system: human THP-1 promonocytic leukemia cell line; test: IL-8 production / cytokine release from THP-1 cells, TLR2 ligand with or without calcium flux agonist; format: cell-based; conditions: suboptimal dose of TLR2 ligand (Pam2CSK4 / Pam2CYS) plus suboptimal dose of agonist; beyond cumulative individual responses
Protocol: (§4) For example, human promonocytic THP-1 cells were incubated in the presence or absence of a suboptimal dose of the TLR2 ligand Pam2CSK4 and compared to similarly treated cells which also received suboptimal doses of ionophore (here: A23187 and ionomycin). […] In another example, KB-LUC THP-1 cells (a THP-1-derived transfectant line harboring an NF-κB-driven luciferase expression cassette) were cultivated in the presence or absence of a suboptimal dose of the TLR2 ligand Pam2CSK4 and compared to similarly treated cells that also received suboptimal doses of various SERCA inhibitors.
Here, the ionophores A23187 and ionomycin, as well as the SERCA inhibitor thapsigargin synergize with the TLR2 ligand (Pam2CYS) in the activation of cytokine release from the human THP-1 promonocytic leukemia cell line. It should be especially noted that while the TLR2 ligand alone provided for about 5 ng/ml IL-8 response, addition of a suboptimal dose of the calcium flux agonists (e.g. 20 nM for thapsigargin, 316 nM for A23187, and 1 μM for ionomycin) produced more than 10-fold quantities of IL-8 production in the cells.

TLR9 = test: IL-8 production, calcium flux agonist plus TLR9 ligand (FIGS. 2A, 2B, 2E); format: cell-based; conditions: suboptimal doses: 20 nM thapsigargin, 316 nM A23187, 1 μM ionomycin
Protocol: as §1, §2, §3

κB-LUC THP-1 cells = test: Activation of κB-LUC THP-1 cells by S. aureus conditioned/spent media (FIGS. 3A-3C); format: cell-based, human; conditions: for recognition of S. aureus conditioned/spent media (activation of κB-LUC THP-1 cells): suboptimal doses: thapsigargin, 316 nM A23187, 1 μM ionomycin
NOD1 = test: IL-8 production, calcium flux agonist plus NOD1 ligand (FIGS. 2A-2E); format: cell-based; conditions: suboptimal doses: 20 nM thapsigargin, 316 nM A23187, 1 μM ionomycin, 10 μM cyclopiazonic acid, 31.6 μM DBHQ
Protocol: as §1, §2, §3

TLR5 = test: IL-8 production, calcium flux agonist plus TLR5 ligand (FIGS. 2A-2E); format: cell-based; conditions: suboptimal doses: 20 nM thapsigargin, 316 nM A23187, 1 μM ionomycin, 10 μM cyclopiazonic acid, 31.6 μM DBHQ
Protocol: as §1, §2, §3

KB-LUC THP-1 cells = test: NF-κB-driven luciferase in KB-LUC THP-1 cells, TLR2 ligand Pam2CSK4 with or without SERCA inhibitor; format: cell-based, human; conditions: suboptimal dose of Pam2CSK4 plus suboptimal dose of SERCA inhibitor; beyond cumulative individual responses
Protocol: as §4

Compound | synergistic effect to augment cellular response (IL-8 production) for TLR2 (TLR2) | synergistic effect to augment cellular response (IL-8 production) for NOD2 (NOD2) | synergistic effect to augment cellular response (IL-8 production) for TLR4 (TLR4) | synergy with TLR2 ligand in IL-8 production / cytokine release [1] | synergistic effect to augment cellular response (IL-8 production) for TLR9 (TLR9) | recognition of S. aureus conditioned/spent media (activation of κB-LUC THP-1 cells) (κB-LUC THP-1 cells) | synergistic effect to augment cellular response (IL-8 production) for NOD1 (NOD1) | synergistic effect to augment cellular response (IL-8 production) for TLR5 (TLR5) | effect on calcium flux-induced synergy (κB-LUC THP-1 cells; extracellular chelator added at 1 mM) | amount of luciferase produced (NF-κB-driven), synergy with TLR2 ligand (KB-LUC THP-1 cells)
CNc1ccc2oc(C[C@H]3O[C@@]4(CC[C@H]3C)O[C@H]([C@H](C)C(=O)c3ccc[nH]3)[C@H](C)C[C@H]4C)nc2c1C(=O)O [A23187] | synergistic effect | synergistic effect | synergistic effect | significantly increased; also recorded: synergize | synergistic effect | significantly enhanced | synergistic effect | synergistic effect |  | 
CC(C)(C)c1cc(O)c(C(C)(C)C)cc1O [DBHQ, 2,5-di(tert-butyl) hydroquinone] | synergistic effect | synergistic effect | synergistic effect |  |  |  | synergistic effect | synergistic effect |  | 
O=C(O)CN(CCOCCOCCN(CC(=O)O)CC(=O)O)CC(=O)O [EGTA] |  |  |  |  |  |  |  |  | inhibited | 
C[C@H](CCC(=O)O)C[C@H](C)C[C@H](C)C(=O)/C=C(\O)[C@H](C)C[C@H](C)C/C=C/[C@@H](C)[C@@H](O)[C@@H](C)[C@@H](O)C[C@@H]1CC[C@@](C)([C@H]2CC[C@@](C)([C@@H](C)O)O2)O1 [ionomycin] | synergistic effect | synergistic effect | synergistic effect | significantly increased; also recorded: synergize | synergistic effect | significantly enhanced | synergistic effect | synergistic effect |  | 
C/C=C(/C)C(=O)O[C@H]1C(C)=C2[C@H]([C@@H]1OC(=O)CCCCCCC)[C@@](C)(OC(C)=O)C[C@H](OC(=O)CCC)[C@@]1(O)[C@H]2OC(=O)[C@@]1(C)O [thapsigargin] | synergistic effect | synergistic effect | synergistic effect | synergize | synergistic effect | significantly enhanced | synergistic effect | synergistic effect |  | significantly increased

Reference: patent publication US10434142B2, “Compositions and methods of improved wound healing” (Chan Soon-Shiong Nanthealth Foundation, priority 2013, dated 2019)
